Measurements from patent US9428791B2, “Probes of RNA structure and methods for using the same” (The Board of Trustees of the Leland Stanford Junior …, priority 2012, dated 2016).
Like-named read-outs stand apart in the source and are kept apart here.

What was measured:
ATP [1] = test system: ATP
Protocol: Briefly, 10,000 cpm/uL of radiolabeled ATP is incubated with increasing amounts of NAI or FAI (10% final volume) in 100 mM HEPES buffer, pH 8.0, containing 6 mM MgCl2, 100 mM NaCl. Reactions are stopped by addition of an equal volume of Gel Loading Buffer 11 (Ambion, Inc.) and placed on ice. […] Single adduct reaction rates and percentages are calculated by integrating bands (Image Quant, IM Support) and fit to a single exponential.

[2] = Hydrolysis of NAI and FAI in aqueous buffer (absorbance decay); format: physicochemical; details: 100 mM HEPES, 100 mM NaCl, 10 mM MgSO4, pH 8.0; fit f=y0+a*exp(−b*x); in 1/min
Protocol: Hydrolysis of NAI and FAI. Hydrolysis of NAI and FAI is monitored by adding 1.5 μL of a 100 mM solution of either NAI or FAI in spectroscopic grade DMF to 598.5 μL of buffer (100 mM HEPES, 100 mM NaCl, 10 mM MgSO4, pH 8.0) and monitoring the decrease in absorbance at 265 nm (NAI) or 275 nm (FAI). Three parameter pseudo-first order exponential decay kinetics are fit using OriginPro 8.0 software using the equation: f=y0+a*exp(−b*x)

5S rRNA [3] = format: cell-based; details: cultured human cancer cells
Protocol: (§1) Cells are then spun down and decanted. […] Extensions are performed for ten minutes.

5S rRNA [4] = test: Acylation of RNA in E. coli cells; format: cell-based, Escherichia coli
Protocol: Acylation of RNA in E. coli cells. […] E. coli cells are grown to an OD600 of 0.25 at 37° C. in […]. Cells are spun down at 4000×g and decanted. […] Cells are resuspended in a final volume of a fresh solution of 800 μl 0.5 mg/ml lysozyme, TE pH 8.0. 80 μl of 10% SDS is added to the mixture and the slurry is placed at 64° C. for 1-2 min. After incubation add 88 μl 1 M NaOAc, pH5.2 is added. The samples are added to an equal volume (1 ml) of water-saturated phenol (pH <7.0) and incubated at 64° C. for 6 min. The resultant slurry is spun at max speed (14,000 rpm) for 10 min at 4° C. […] Reverse transcription primer used for E. coil 5S rRNA: 5′-[…] (SEQ ID NO: 10).
(§2) Extensions are performed for ten minutes.

human 5S rRNA = test: Acylation of 5S rRNA in vitro (SHAPE)
Protocol: Acylation of RNA, in vitro. In a typical in vitro modification protocol, 6 μg total RNA is heated in metal-free water for two minutes at 95° C. The RNA is then flash-cooled on ice. The RNA 3× SHAPE buffer (333 mM HEPES, pH 8.0, 20 mM MgCl2, 333 mM NaCl) is added and the RNA allowed to equilibrate at 37° C. for ten minutes. To this mixture, 1 μL of 10× electrophile stock in DMSO (+) or DMSO (−) is added. The reaction is permitted to continue until the desired time. Reactions are quenched with 60 μL of DMS stop solution (0.5 M β-mercaptoethanol, 0.75 M Na.acetate, pH 5.5). Reactions are extracted once with acid phenol:chloroform (pH 4.5±0.2) and twice with chloroform. RNA is precipitated with 40 μL of 3M sodium acetate buffer (pH 5.2) and 1 μL of glycogen (20 ug/uL).
as §2

5S rRNA [5] = format: cell-based, mouse
Protocol: as §1

5S rRNA [6] = test: Acylation of RNA in yeast cells; format: cell-based, Saccharomyces cerevisiae
Protocol: Acylation of RNA in yeast cells. […] Yeast cells are grown to an OD600 of 1.0 at 30° C. in YPD medium. Cells are spun down at 4000×g and decanted. […] Cells are then spun down, decanted, and flash frozen in liquid nitrogen. Frozen pellets are resuspended in 500 uL of 50 mM NaOAc pH5.0, 10 mM EDTA pH 8.0 and 100 uL of 10% SDS. […] Cells are incubated at 65° C. for 1 minute. The freeze thaw cycle is repeated three times.
as §2

5S rRNA [7] = format: cell-based, Drosophila melanogaster; details: Drosophila S2 cells
Protocol: as §1

[8] = test system: U1 snRNA, U2 snRNA, SNORD3A; test: Acylation of nuclear RNAs in HeLa S3 cells; format: cell-based, Homo sapiens; details: HeLa S3, 200 mM final, thirty minutes
Protocol: Cells are then spun down and decanted. […] NO: 12). […] NO:7) (SEQ ID NO:13). […] NO:14). […] Extensions are performed for ten minutes.

ATP [9] = test: ATP gel shift acylation
Text: ATP gel shift. […] Chem. Soc. 127, 4223-4231, (2005).

HOTAIR = test: Secondary structure probing of in vitro transcribed HOTAIR RNA; details: 5′ end of HOTAIR
Protocol: ABI-1 as a probe of RNA secondary structure. To evaluate the compound's ability to modify RNA at conformationally flexible positions ABI-1 was tested in comparison to NMIA. […] After incubation, the RNA was extracted and precipitated with ethanol.
ABI-1 Reversible Modification and Cell-Permeability. […] FIG. 15A.

Solubility = format: physicochemical
ATP [10] = details: see Weeks et al., J. Am. Chem. Soc. 127, 4223-4231, 2005; cited from earlier work

Row | Compound | Result (qualitative: reactivity toward ATP, hydrolysis, solubility) (ATP [1]) | b (pseudo-first order exponential decay constant of hydrolysis) [2] | 5S rRNA modification in cells (5S rRNA [3]) | 5S rRNA modification in cells (5S rRNA [4]) | Sites of modification mapped to predicted secondary structure (human 5S rRNA) | Time at which modification signal begins to plateau (5S rRNA [5]; 100 mM NAI, murine ESCs) [min] | Time to 5S rRNA modification with suitable signal-to-noise ratio (5S rRNA [5]; 100 mM NAI, murine ESCs) | 5S rRNA modification in cells (reverse transcription blocks) (5S rRNA [5]; live mouse ESC, aqueous buffer) | Extent of modification in cells, comparison of probes (5S rRNA [5]; same concentration) | Cell attachment, morphology and trypan blue staining (V6.5 mESCs) | 5S rRNA modification in cells (5S rRNA [6]) | 5S rRNA modification in cells (5S rRNA [7]) | Modification of nuclear, lower abundant RNAs [8] | Retained reactivity with ATP in aqueous buffer (ATP [9]) | Mapping of RNA secondary structure (HOTAIR) | maximum solubility (Solubility) [mM] | Retained reactivity in aqueous buffer (ATP [10])
1 | N#CC(=O)OCc1ccccc1 | Too Reactive, High Hydrolysis |  |  |  |  |  |  |  |  |  |  |  |  |  |  |  | 
2 | Cc1ncccc1C(=O)n1ccnc1 [NAI, 2-methylnicotinic acid imidizolide] |  | .020476 | modifies 5S rRNA | modifies 5S rRNA | map to residues that are predicted to be flexible | ≤ 15 | in as little as one minute | caused blocks in subsequent reverse transcription | greater extent of modification than FAI | remained attached to tissue culture vessel, appeared morphologically normal and unstained by trypan blue | modifies 5S rRNA | modifies 5S rRNA | modifies nuclear, lower abundant RNAs | retain reactivity with ATP at 120 minutes |  |  | 
3 | Cn1c(=O)oc(=O)c2ccccc21 [NMIA, N-methylisotoic anhydride] |  |  |  |  | map to residues that are predicted to be flexible |  |  |  |  |  |  |  |  |  | successfully mapped the predicted secondary structure of the 5′ end of HOTAIR | 13 | mostly quenched after thirty minutes
